# Data: patent US9303016B2, “Derivatives of aza adamantane and uses thereof” (CONNEXIOS LIFE SCIENCES PVT. LTD., priority 2011, dated 2016)
# Biological target: T1, human full length HSD11β1 (Homo sapiens, UniProt P28845)
# T1 construct: transient expression of human full length HSD11β1 expression vector; host or cells: CHO cells, transient transfection
# Assay: In Vitro HSD11β1 Inhibition Assay
# Type: cell-based
# Conditions: CHO cells transiently expressing human HSD11β1; 200 nM cortisone+500 uM NADPH overnight; cortisone to cortisol by LC/MS-MS; read-out: 11βHSD1 (IC50)
# Experimental: In Vitro HSD11β1 Inhibition Assay:
# CHO cells were maintained in Dulbecco's modified Eagle's medium/nutrient mixture F-12 containing 5% fetal bovine serum (v/v) and 2 mM glutamine. Cells were cultured at 37° C. with 5% CO2. For transient expression of human full length HSD11β1 expression vector (OriGene Technologies), cells were seeded at a density of 2×10^5 cells/well in a 6-well plate. Transfection was done using Turbofectin8 reagent (OriGene Technologies), according to the protocol provided with the reagent. After 24 hours post-transfection, cells were trypsinized and pooled together before they were re-seeding to 96-well plate at a density of 40000 cells/well. 24 hours after re-seeding, cells were incubated with 200 nM cortisone+500 uM NADPH (or along with small molecule inhibitors) overnight. The enzymatic activity or inhibition of enzyme activity was measured by estimating the conversion of cortisone to cortisol by LC/MS-MS method. The IC50 in nM was calculated from a 8 point log scale of concentration versus inhibition.
# T1 sequence (P28845 whole entry): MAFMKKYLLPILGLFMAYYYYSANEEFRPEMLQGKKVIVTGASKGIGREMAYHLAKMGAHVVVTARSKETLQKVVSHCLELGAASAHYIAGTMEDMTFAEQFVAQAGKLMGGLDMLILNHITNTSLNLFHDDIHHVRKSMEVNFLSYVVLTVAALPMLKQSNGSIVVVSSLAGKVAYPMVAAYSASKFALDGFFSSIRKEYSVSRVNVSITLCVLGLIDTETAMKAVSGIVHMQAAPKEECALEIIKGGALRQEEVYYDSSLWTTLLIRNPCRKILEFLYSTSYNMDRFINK
row,Compound,IC50 [nM]
1,"CC(CC(=O)N1C2CC3CC1CC(CC(=O)O)(C3)C2)c1c[nH]c2cccc(C3CC3)c12 (single isomer, unassigned) [Compound 155, {2-[3-(4-cyclopropyl-1H-indol-3-yl)butanoyl]-2-azatricyclo[3.3.1.1^3,7]dec-5-yl}acetic acid]",100 to 150
2,"CC(CC(=O)N1C2CC3CC1CC(CC(=O)O)(C3)C2)c1c[nH]c2cccc(C3CC3)c12 (single isomer, unassigned) [Compound 156, {2-[3-(4-cyclopropyl-1H-indol-3-yl)butanoyl]-2-azatricyclo[3.3.1.1^3,7]dec-5-yl}acetic acid]",> 250
3,"CC(CC(=O)N1C2CC3CC1CC(O)(C3)C2)c1c[nH]c2ccc(F)c(C3CC3)c12 (single isomer, unassigned) [Compound 158, 3-(4-cyclopropyl-5-fluoro-1H-indol-3-yl)-1-(5-hydroxy-2-azatricyclo[3.3.1.1^3,7]dec-2-yl)butan-1-one]",> 250
4,"Cc1ccc2[nH]cc(C(C)CC(=O)N3C4CC5CC3CC(O)(C5)C4)c2c1C (single isomer, unassigned) [Compound 169, 3-(4,5-dimethyl-1H-indol-3-yl)-1-(5-hydroxy-2-azatricyclo[3.3.1.1^3,7]dec-2-yl)butan-1-one]",< 100
5,"CC(CC(=O)N1C2CC3CC1CC(O)(C3)C2)c1c[nH]c2ccc(Cl)c(Cl)c12 (single isomer, unassigned) [Compound 172, 3-(4,5-dichloro-1H-indol-3-yl)-1-(5-hydroxy-2-azatricyclo[3.3.1.1^3,7]dec-2-yl)butan-1-one]",> 250
6,"Cc1ccc2[nH]cc(C(C)CC(=O)N3C4CC5CC3CC(O)(C5)C4)c2c1Cl (single isomer, unassigned) [Compound 174, 3-(4-chloro-5-methyl-1H-indol-3-yl)-1-(5-hydroxy-2-azatricyclo[3.3.1.1^3,7]dec-2-yl)butan-1-one]",> 250
7,"Cc1ccc2[nH]cc(C(C)CC(=O)N3C4CC5CC3CC(O)(C5)C4)c2c1Cl (single isomer, unassigned) [Compound 175, 3-(4-chloro-5-methyl-1H-indol-3-yl)-1-(5-hydroxy-2-azatricyclo[3.3.1.1^3,7]dec-2-yl)butan-1-one]",< 100
8,"CC(C)Oc1cccc2[nH]cc(C(C)CC(=O)N3C4CC5CC3CC(O)(C5)C4)c12 (single isomer, unassigned) [Compound 179, 1-(5-hydroxy-2-azatricyclo[3.3.1.1^3,7]dec-2-yl)-3-[4-(propan-2-yloxy)-1H-indol-3-yl]butan-1-one]",> 250
9,"CC(C)Oc1cccc2[nH]cc(C(C)CC(=O)N3C4CC5CC3CC(F)(C5)C4)c12 (single isomer, unassigned) [Compound 184, 1-(5-fluoro-2-azatricyclo[3.3.1.1^3,7]dec-2-yl)-3-[4-(propan-2-yloxy)-1H-indol-3-yl]butan-1-one]",< 100
10,"CC(C)Oc1cccc2[nH]cc(C(C)CC(=O)N3C4CC5CC3CC(F)(C5)C4)c12 (single isomer, unassigned) [Compound 185, 1-(5-fluoro-2-azatricyclo[3.3.1.1^3,7]dec-2-yl)-3-[4-(propan-2-yloxy)-1H-indol-3-yl]butan-1-one]",> 250
11,"CC(CC(=O)N1C2CC3CC1CC(O)(C3)C2)c1c[nH]c2cccc(-c3cccs3)c12 (single isomer, unassigned) [Compound 189, 1-(5-hydroxy-2-azatricyclo[3.3.1.1^3,7]dec-2-yl)-3-[4-(thiophen-2-yl)-1H-indol-3-yl]butan-1-one]",> 250
12,"CC(CC(=O)N1C2CC3CC1CC(O)(C3)C2)c1nc2ccc(Cl)cc2s1 (single isomer, unassigned) [Compound 194, 3-(6-chloro-1,3-benzothiazol-2-yl)-1-(5-hydroxy-2-azatricyclo[3.3.1.1^3,7]dec-2-yl)butan-1-one]",< 100
13,"CC(CC(=O)N1C2CC3CC1CC(O)(C3)C2)c1nc2ccc(Cl)cc2s1 (single isomer, unassigned) [Compound 195, 3-(6-chloro-1,3-benzothiazol-2-yl)-1-(5-hydroxy-2-azatricyclo[3.3.1.1^3,7]dec-2-yl)butan-1-one]",> 250
14,"CC(CC(=O)N1C2CC3CC1CC(O)(C3)C2)c1c[nH]c2ncc(Cl)c(C3CC3)c12 (single isomer, unassigned) [Compound 200, 3-(5-chloro-4-cyclopropyl-1H-pyrrolo[2,3-b]pyridin-3-yl)-1-(5-hydroxy-2-azatricyclo[3.3.1.1^3,7]dec-2-yl)butan-1-one]",> 250
15,"CC(CC(=O)N1C2CC3CC1CC(O)(C3)C2)c1c[nH]c2ccccc12 (single isomer, unassigned) [Example 21, 1-(5-hydroxy-2-azatricyclo[3.3.1.1^3,7]dec-2-yl)-3-(1H-indol-3-yl)butan-1-one]",> 250
16,"CC(CC(=O)N1C2CC3CC1CC(O)(C3)C2)c1c[nH]c2ccccc12 (single isomer, unassigned) [Example 22, 1-(5-hydroxy-2-azatricyclo[3.3.1.1^3,7]dec-2-yl)-3-(1H-indol-3-yl)butan-1-one]",> 250
17,"CC(CC(=O)N1C2CC3CC1CC(O)(C3)C2)c1c[nH]c2cccc(F)c12 (single isomer, unassigned) [Example 27, 3-(4-fluoro-1H-indol-3-yl)-1-(5-hydroxy-2-azatricyclo[3.3.1.1^3,7]dec-2-yl)butan-1-one]",> 250
18,"CC(CC(=O)N1C2CC3CC1CC(O)(C3)C2)c1c[nH]c2cccc(F)c12 (single isomer, unassigned) [Example 28, 3-(4-fluoro-1H-indol-3-yl)-1-(5-hydroxy-2-azatricyclo[3.3.1.1^3,7]dec-2-yl)butan-1-one]",200 to 250
19,"COC12CC3CC(C1)N(C(=O)CC(C)c1c[nH]c4cccc(F)c14)C(C3)C2 (single isomer, unassigned) [Example 30, 3-(4-fluoro-1H-indol-3-yl)-1-(5-methoxy-2-azatricyclo[3.3.1.1^3,7]dec-2-yl)butan-1-one]",150 to 200
20,"COC12CC3CC(C1)N(C(=O)CC(C)c1c[nH]c4cccc(F)c14)C(C3)C2 (single isomer, unassigned) [Example 31, 3-(4-fluoro-1H-indol-3-yl)-1-(5-methoxy-2-azatricyclo[3.3.1.1^3,7]dec-2-yl)butan-1-one]",< 100
21,"CC(CC(=O)N1C2CC3CC1CC(O)(C3)C2)c1c[nH]c2cccc(Cl)c12 (single isomer, unassigned) [Example 36, 3-(4-chloro-1H-indol-3-yl)-1-(5-hydroxy-2-azatricyclo[3.3.1.1^3,7]dec-2-yl)butan-1-one]",200 to 250
22,"CC(CC(=O)N1C2CC3CC1CC(O)(C3)C2)c1c[nH]c2cccc(Cl)c12 (single isomer, unassigned) [Example 37, 3-(4-chloro-1H-indol-3-yl)-1-(5-hydroxy-2-azatricyclo[3.3.1.1^3,7]dec-2-yl)butan-1-one]",< 100
23,"Cc1cccc2[nH]cc(C(C)CC(=O)N3C4CC5CC3CC(O)(C5)C4)c12 (single isomer, unassigned) [Example 49, 1-(5-hydroxy-2-azatricyclo[3.3.1.1^3,7]dec-2-yl)-3-(4-methyl-1H-indol-3-yl)butan-1-one]",< 100
24,"CC(CC(=O)N1C2CC3CC1CC(C(=O)O)(C3)C2)c1c[nH]c2cccc(C3CC3)c12 (single isomer, unassigned) [Example 53, 2-[3-(4-cyclopropyl-1H-indol-3-yl)butanoyl]-2-azatricyclo[3.3.1.1^3,7]decane-5-carboxylic acid]",> 250
